Patent US8106055B2, “Substituted amide compounds” (Gruenenthal GmbH, priority 2007, dated 2012)

These compounds were tested against T1, human μ opiate receptor (Homo sapiens, UniProt P35372) (assay: Affinity for the human μ opiate receptor ([3H]-naloxone displacement, CHO-K1 receptor membrane preparation, SPA)). Settings: test concentration of 1 μM.
T1 construct: purchased PerkinElmer Life Sciences, Zaventem, Belgium RB-HOM; host or cells: CHO-K1 cells (membrane preparation)
Assay type: binding
In short: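 Readout is percent displacement of [3H]-naloxone (1 nmol/l) from human μ receptor in CHO-K1 membranes, measured at 1 μmol/l compound. Incubation runs 90 minutes at room temperature with WGA-SPA beads in Tris-HCl/BSA buffer; non-specific binding is defined with 100 μmol/l naloxone.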

T1 sequence (P35372 whole entry): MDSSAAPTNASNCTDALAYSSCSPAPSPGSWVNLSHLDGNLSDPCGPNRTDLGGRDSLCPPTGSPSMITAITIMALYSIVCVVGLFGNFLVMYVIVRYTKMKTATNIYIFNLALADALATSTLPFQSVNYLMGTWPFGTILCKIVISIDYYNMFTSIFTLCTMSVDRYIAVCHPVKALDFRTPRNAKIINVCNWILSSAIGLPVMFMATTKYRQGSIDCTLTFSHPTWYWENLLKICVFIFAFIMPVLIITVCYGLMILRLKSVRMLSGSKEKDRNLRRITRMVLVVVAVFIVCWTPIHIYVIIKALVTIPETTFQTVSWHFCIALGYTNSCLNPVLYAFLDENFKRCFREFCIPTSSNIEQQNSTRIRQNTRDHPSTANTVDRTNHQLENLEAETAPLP

Row | Compound | μ (binding on the μ opioid receptor, % inhibition)
1 | CN(C)C(CCc1ccccc1)C1CCC(CNC(=O)COC2CCN(S(=O)(=O)c3ccccc3)C2)CC1 (stereo not drawn) [Example 573] | 23%
2 | CN(C)C(c1ccc(F)cc1)C1CCC(CNC(=O)COC2CCN(S(=O)(=O)c3ccccc3)CC2)CC1 (stereo not drawn) [Example 568] | 11%
3 | COc1cc(C)c(S(=O)(=O)N(CCOCC(=O)NCCC2CCC(C(c3ccc(F)cc3)N(C)C)CC2)Cc2ccccc2)c(C)c1 (stereo not drawn) [Example 547] | 30%
4 | COc1ccc(S(=O)(=O)N(C)CCOCC(=O)NCC2CCC(C(CCc3ccccc3)N(C)C)CC2)cc1OC (stereo not drawn) [Example 571] | 14%
5 | CN(C)C(CCc1ccccc1)C1CCC(CNC(=O)COCC2CCCN(S(=O)(=O)c3ccccc3)C2)CC1 (stereo not drawn) [Example 544] | 24%
6 | CN(C)C(CCc1ccccc1)C1CCC(CNC(=O)COCCN(C)S(=O)(=O)c2ccc(OC(F)(F)F)cc2)CC1 (stereo not drawn) [Example 567] | 23%
7 | COc1ccc(S(=O)(=O)N2CCC(OCC(=O)NCC3CCC(C(CCc4ccccc4)N(C)C)CC3)C2)cc1OC (stereo not drawn) [Example 566] | 19%
8 | COc1cc(C)c(S(=O)(=O)N(CCOCC(=O)NCCC2CCC(C(c3ccc(Cl)cc3)N(C)C)CC2)Cc2ccccc2)c(C)c1C (stereo not drawn) [Example 576] | 15%
9 | CN(C)C(c1ccc(F)cc1)C1CCC(CNC(=O)COCCC2CCN(S(=O)(=O)c3ccccc3)CC2)CC1 (stereo not drawn) [Example 583] | 7%
10 | COc1cc(C)c(S(=O)(=O)N2CCC(OCC(=O)NCC3CCC(C(CCc4ccccc4)N(C)C)CC3)CC2)c(C)c1C (stereo not drawn) [Example 546] | 33%
11 | COc1cc(C)c(S(=O)(=O)N2CCCC(OCC(=O)NCC3CCC(C(CCc4ccccc4)N(C)C)CC3)C2)c(C)c1C (stereo not drawn) [Example 551] | 35%

Same assay, conditions: test concentration of 1 μM; 1 µM

Row | Compound | μ (binding on the μ opioid receptor, % inhibition)
12 | COc1ccc(S(=O)(=O)N2CCCCC2COCC(=O)NCCC2CCC(C(c3cccc(F)c3)N(C)C)CC2)cc1OC (stereo not drawn) [Example 581] | 9%
13 | COc1ccc(S(=O)(=O)N2CCCCC2COCC(=O)NCC2CCC(C(CCc3ccccc3)N(C)C)CC2)c(OC)c1 (stereo not drawn) [Example 486] | 36%
14 | CN(C)C(CCc1ccccc1)C1CCC(CNC(=O)COCCN(C)S(=O)(=O)c2c(Cl)cccc2Cl)CC1 (stereo not drawn) [Example 580] | 13%
15 | CN(C)C(CCc1ccccc1)C1CCC(CNC(=O)COCCN(C)S(=O)(=O)c2c(Cl)cccc2Cl)CC1 (stereo not drawn) [Example 476] | 47%
16 | COc1ccc(S(=O)(=O)N2CCCCC2COCC(=O)NCC2CCC(C(CCc3ccccc3)N(C)C)CC2)cc1OC (stereo not drawn) [Example 559] | 14%
17 | COc1ccc(S(=O)(=O)N2CCCCC2COCC(=O)NCC2CCC(C(c3ccc(F)cc3)N(C)C)CC2)cc1OC (single isomer, unassigned) [Example 534] | 24%

Same assay, conditions: test concentration of 1 μM; read-out: μ (binding on the μ opioid receptor, % inhibition)

Row | Compound | inhibition at 1 µM
18 | COc1cc(C)c(S(=O)(=O)N2CCC(CCOCC(=O)NCC3CCC(C(c4cccs4)N(C)C)CC3)CC2)c(C)c1C (stereo not drawn) [Example 131, N-((4-((dimethylamino)(thiophen-2-yl)methyl)cyclohexyl)methyl)-2-(2-(1-(4-methoxy-2,3,6-trimethylphenylsulfonyl)piperidin-4-yl)ethoxy)acetamide] | 86%
19 | CN(C)C(c1cccs1)C1CCC(CCNC(=O)COC2CCN(S(=O)(=O)c3cccc(C(F)(F)F)c3)C2)CC1 (stereo not drawn) [Example 96, N-(2-(4-((dimethylamino)(thiophen-2-yl)methyl)cyclohexyl)ethyl)-2-(1-(3-(trifluoromethyl)phenylsulfonyl)pyrrolidin-3-yloxy)acetamide] | 92%
20 | CCN(CCOCC(=O)NCC1CCC(C(c2cccc(F)c2)N(C)C)CC1)S(=O)(=O)c1c(C)cc(OC)c(C)c1C (stereo not drawn) [Example 117, N-((4-((dimethylamino)(3-fluorophenyl)methyl)cyclohexyl)methyl)-2-(2-(N-ethyl-4-methoxy-2,3,6-trimethylphenylsulfonamido)ethoxy)acetamide] | 92%
21 | COc1cc(C)c(S(=O)(=O)N2CCC(OCC(=O)NCC3CCC(C(c4cccs4)N(C)C)CC3)CC2)c(C)c1C (stereo not drawn) [Example 104, N-((4-((dimethylamino)(thiophen-2-yl)methyl)cyclohexyl)methyl)-2-(1-(4-methoxy-2,3,6-trimethylphenylsulfonyl)piperidin-4-yloxy)acetamide] | 90%
22 | CN(C)C(c1ccccc1)C1CCC(CNC(=O)COCCN(C)S(=O)(=O)c2ccc(F)cc2)CC1 (stereo not drawn) [Example 112, N-((4-((dimethylamino)(phenyl)methyl)cyclohexyl)methyl)-2-(2-(4-fluoro-N-methylphenylsulfonamido)ethoxy)acetamide] | 82%
23 | COc1cc(C)c(S(=O)(=O)N2CCC(CCOCC(=O)NC3CCC(C(c4cccc(F)c4)N(C)C)CC3)CC2)c(C)c1C (stereo not drawn) [Example 118, N-(4-((dimethylamino)(3-fluorophenyl)methyl)cyclohexyl)-2-(2-(1-(4-methoxy-2,3,6-trimethylphenylsulfonyl)piperidin-4-yl)ethoxy)acetamide] | 90%
24 | Cc1ccc(S(=O)(=O)N2CCC(OCC(=O)NCC3CCC(C(c4ccccc4)N(C)C)CC3)C2)cc1 (stereo not drawn) [Example 125, N-((4-((dimethylamino)(phenyl)methyl)cyclohexyl)methyl)-2-(1-tosylpyrrolidin-3-yloxy)acetamide] | 91%
25 | CN(C)C(c1cccs1)C1CCC(CCNC(=O)COCC2CCCN(S(=O)(=O)c3ccccc3)C2)CC1 (stereo not drawn) [Example 115, N-(2-(4-((dimethylamino)(thiophen-2-yl)methyl)cyclohexyl)ethyl)-2-((1-(phenylsulfonyl)piperidin-3-yl)methoxy)acetamide] | 91%
26 | COc1ccc(S(=O)(=O)N2CCCCC2COCC(=O)NCCC2CCC(C(c3cccs3)N(C)C)CC2)c(OC)c1 (stereo not drawn) [Example 107, 2-((1-(2,4-dimethoxyphenylsulfonyl)piperidin-2-yl)methoxy)-N-(2-(4-((dimethylamino)(thiophen-2-yl)methyl)cyclohexyl)ethyl)acetamide] | 92%
27 | CN(C)C(c1ccccc1)C1CCC(NC(=O)COCCN(C)S(=O)(=O)c2c(Cl)cccc2Cl)CC1 (stereo not drawn) [Example 135, 2-(2-(2,6-dichloro-N-methylphenylsulfonamido)ethoxy)-N-(4-((dimethylamino)(phenyl)methyl)cyclohexyl)acetamide] | 89%
